Reference: article PMC2920453 (Chemistry & biology, 2010)

Key:
V561M FGFR1 = V561M FGFR1 (Homo sapiens, UniProt P11362, V561M); details: 10 μM, 1 hour drug treatment, HEK293
MFE-296 cells = test: Endometrial carcinoma cell proliferation; details: activating FGFR2 mutation; 4 days
Hec-1B cells = test: Endometrial carcinoma cell proliferation; details: wild type FGFR2; 4 days
wild-type MCF10A cells = test: Growth of wild-type MCF10A cells; format: cell-based
R082-W-1 = test: cells; details: Homo sapiens, 72 h
JAR = test: cells; details: Homo sapiens, 72 h
A2.1 = test: cells; details: Homo sapiens, 72 h
KATO III = test: cells; details: Homo sapiens, 72 h
AN3CA cells = test: Endometrial carcinoma cell proliferation; details: activating FGFR2 mutation; 4 days
RD-ES = test: cells; details: Homo sapiens, 72 h
H520 = test: cells; details: Homo sapiens, NCI-H520, 72 h
TOV-112D = test: cells; details: Homo sapiens, TOV112D, 72 h
PA-1 = test: cells; details: Homo sapiens, PA-1, 72 h
FU97 = test: cells; details: Homo sapiens, Fu97, 72 h
G-401 = test: cells; details: Homo sapiens, G-401, 72 h
SNU-16 [1] = test: cells; details: Homo sapiens, SNU-16, 72 h
G-402 = test: cells; details: Homo sapiens, G-402, 72 h
RT4 = test: cells; details: Homo sapiens, RT-4, 72 h
JHH-7 = test: cells; details: Homo sapiens, JHH7, 72 h
NCI-H1703 = test: cells; details: Homo sapiens, NCI-H1703, 72 h
LU99A = test: cells; details: Homo sapiens, LU-99A, 72 h
SBC-3 [2] = test: cells; details: Homo sapiens, SBC-3, 72 h
[3] = tested on: iFGFR1-activated MCF10A cells; test: 3D Matrigel culture morphogenesis; format: cell-based; details: 3D culture
A2780 [4] = test: cells; details: Homo sapiens, A2780, 72 h
STS-0421 = test: cells; details: Homo sapiens, 72 h
VM-CUB1 = test: cells; details: Homo sapiens, VM-CUB-1, 72 h
FGFR1 = FGFR1 (Homo sapiens, UniProt P11362); details: ref Kammasud et al., 2007; cited from earlier work
KATO-III = test: Pro-survival signaling; details: 200 nM, 6 hours
wild-type Ba/F3 cells = test: cells; details: Mus musculus, BaF3, 48 h
WT iFGFR1 MCF10A cells = test: iFGFR1-dependent MCF10A proliferation; details: Homo sapiens, MCF-10A, 48 h
SNU-16 [5] = test: Pro-survival signaling; details: 200 nM, 6 hours
A2780 [6] = test: Survival pathways immunoblot; details: 200 nM, 6 hours
SBC-3 [7] = test: Survival pathways immunoblot; details: 200 nM, 6 hours
FLT1 = FLT1 (Homo sapiens, UniProt P17948); test: Z'-lyte kinase assay; format: biochemical
Sequence of FLT1 (P17948 27-1338): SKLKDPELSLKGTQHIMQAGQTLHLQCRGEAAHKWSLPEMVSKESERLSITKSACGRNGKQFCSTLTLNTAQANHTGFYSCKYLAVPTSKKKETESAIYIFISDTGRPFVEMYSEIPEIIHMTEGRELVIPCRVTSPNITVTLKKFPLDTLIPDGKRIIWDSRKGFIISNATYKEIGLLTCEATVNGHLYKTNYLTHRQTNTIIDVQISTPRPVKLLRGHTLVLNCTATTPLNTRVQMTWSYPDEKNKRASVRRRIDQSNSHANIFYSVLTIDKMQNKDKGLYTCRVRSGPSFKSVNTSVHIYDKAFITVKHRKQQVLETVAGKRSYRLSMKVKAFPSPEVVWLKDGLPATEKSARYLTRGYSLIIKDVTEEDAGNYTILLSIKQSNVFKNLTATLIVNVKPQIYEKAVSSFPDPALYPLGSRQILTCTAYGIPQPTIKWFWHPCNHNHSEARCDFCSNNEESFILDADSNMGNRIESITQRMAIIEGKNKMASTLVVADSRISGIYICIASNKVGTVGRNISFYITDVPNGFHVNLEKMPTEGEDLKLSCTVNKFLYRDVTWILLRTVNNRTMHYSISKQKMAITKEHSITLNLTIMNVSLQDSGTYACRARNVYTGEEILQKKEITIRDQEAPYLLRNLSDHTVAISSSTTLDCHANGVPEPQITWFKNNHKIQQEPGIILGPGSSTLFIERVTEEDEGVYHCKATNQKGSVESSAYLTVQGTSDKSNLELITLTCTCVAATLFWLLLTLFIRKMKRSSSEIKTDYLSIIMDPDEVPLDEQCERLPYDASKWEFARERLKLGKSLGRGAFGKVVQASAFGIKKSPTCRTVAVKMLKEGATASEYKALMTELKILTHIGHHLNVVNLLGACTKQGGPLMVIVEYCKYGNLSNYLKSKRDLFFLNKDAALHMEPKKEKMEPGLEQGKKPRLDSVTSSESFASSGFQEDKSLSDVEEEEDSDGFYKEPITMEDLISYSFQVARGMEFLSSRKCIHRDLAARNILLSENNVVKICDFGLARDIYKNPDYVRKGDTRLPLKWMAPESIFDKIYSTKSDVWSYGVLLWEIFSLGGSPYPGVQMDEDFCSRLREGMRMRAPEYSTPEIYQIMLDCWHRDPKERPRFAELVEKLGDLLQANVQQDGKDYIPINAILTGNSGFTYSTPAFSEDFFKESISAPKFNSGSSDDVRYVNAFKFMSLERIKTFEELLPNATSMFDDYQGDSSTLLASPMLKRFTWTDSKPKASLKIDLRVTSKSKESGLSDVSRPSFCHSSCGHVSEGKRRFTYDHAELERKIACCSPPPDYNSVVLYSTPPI

Sequence of V561M FGFR1 (P11362 22-822 V561M): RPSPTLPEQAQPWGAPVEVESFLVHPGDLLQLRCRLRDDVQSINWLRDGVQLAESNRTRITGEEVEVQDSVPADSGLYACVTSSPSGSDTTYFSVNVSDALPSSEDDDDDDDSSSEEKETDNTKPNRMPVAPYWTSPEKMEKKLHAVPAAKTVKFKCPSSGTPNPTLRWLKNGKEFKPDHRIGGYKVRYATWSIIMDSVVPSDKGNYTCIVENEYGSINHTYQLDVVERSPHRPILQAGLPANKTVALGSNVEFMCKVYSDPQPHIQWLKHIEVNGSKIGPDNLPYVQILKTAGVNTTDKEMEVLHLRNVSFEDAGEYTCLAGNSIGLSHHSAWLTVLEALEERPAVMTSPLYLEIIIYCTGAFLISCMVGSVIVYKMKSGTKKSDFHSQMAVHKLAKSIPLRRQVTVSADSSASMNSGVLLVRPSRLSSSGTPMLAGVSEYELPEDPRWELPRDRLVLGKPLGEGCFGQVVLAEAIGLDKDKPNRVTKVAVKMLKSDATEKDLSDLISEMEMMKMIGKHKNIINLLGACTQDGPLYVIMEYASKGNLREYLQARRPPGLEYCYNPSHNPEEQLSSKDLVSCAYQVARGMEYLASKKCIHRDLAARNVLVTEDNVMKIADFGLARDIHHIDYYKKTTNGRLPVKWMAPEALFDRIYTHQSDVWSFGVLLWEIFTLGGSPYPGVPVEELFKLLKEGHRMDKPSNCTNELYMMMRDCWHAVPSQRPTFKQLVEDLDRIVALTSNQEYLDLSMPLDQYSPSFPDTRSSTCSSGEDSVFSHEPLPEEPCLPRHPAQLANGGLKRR
Sequence of FGFR1 (P11362 22-822): as the sequence (P11362 22-822 V561M) above, with M540V counted along it

SMILES	sensitivity in cell proliferation assay (Hec-1B cells)	effect on growth of wild-type MCF10A cells (wild-type MCF10A cells)	EC50 (R082-W-1) [nM]	EC50 (JAR) [nM]	EC50 (A2.1) [nM]	EC50 (RD-ES) [nM]	EC50 (H520) [nM]	EC50 (TOV-112D) [nM]	EC50 (PA-1) [nM]	EC50 (FU97) [nM]	EC50 (G-401) [nM]	EC50 (SNU-16 [1]) [nM]	EC50 (G-402) [nM]	EC50 (RT4) [nM]	EC50 (JHH-7) [nM]	EC50 (NCI-H1703) [nM]	EC50 (LU99A) [nM]	EC50 (SBC-3 [2]) [nM]	EC50 (A2780 [4]) [nM]	EC50 (VM-CUB1) [nM]	other results
CCN(CC)CCCCNc1ncc2cc(-c3cc(OC)cc(OC)c3)c(NC(=O)NC(C)(C)C)nc2n1 [PD173074, reference compound]	not sensitive	neither FIIN-1 nor PD173074 affected the growth	2500	> 5000	340	> 5000	> 5000	> 5000	> 5000	1160	210	120	2480	50	> 5000	> 5000	3000	320	820	> 5000	inhibition of autophosphorylation of FGFR1-V561M (V561M FGFR1): incapable of inhibiting; EC50 (sensitivity in cell proliferation assay) (MFE-296 cells): sub-micromolar; EC50 (KATO III): 22 nM; EC50 (sensitivity in cell proliferation assay) (AN3CA cells): sub-micromolar; effect on abnormal morphogenesis induced by iFGFR1 activation ([3]; 1 μM): prevented; EC50 (STS-0421): 120 nM
COc1cc(OC)cc(-c2ccc3c(c2)NC(=O)/C3=C\c2[nH]c(C)c(CCC(=O)O)c2C)c1 [NP603]	–	–	–	–	–	–	–	–	–	–	–	–	–	–	–	–	–	–	–	–	IC50 (FGFR1): 400 nM
C=CC(=O)Nc1cccc(CN2C(=O)N(c3c(Cl)c(OC)cc(OC)c3Cl)Cc3cnc(NCCCCN(CC)CC)nc32)c1 [FIIN-1]	not sensitive	neither FIIN-1 nor PD173074 affected the growth	> 5000	> 5000	230	2300	4500	> 5000	4600	650	140	30	1650	70	> 5000	> 5000	> 5000	80	220	> 5000	effect on pro-survival Akt and Erk1/2 pathways (KATO-III): potently suppressed; EC50 (wild-type Ba/F3 cells): > 10000 nM; EC50 (WT iFGFR1 MCF10A cells): 2.7 nM; effect on pro-survival Akt and Erk1/2 pathways (SNU-16 [5]): potently suppressed; effect on cell survival and survival pathways (A2780 [6]): inhibited; effect on cell survival and survival pathways (SBC-3 [7]): inhibited; effect on abnormal morphogenesis induced by iFGFR1 activation ([3]; 20 nM): prevented; IC50 (FLT1): 661 nM
